Reference: patent US20250230155A1 (Vanderbilt University, priority 2021, published 2025)

Biological target: T1, human mAChR M4 (Homo sapiens, UniProt P08173)
T1 construct: expressed in transfected cells
T1 sequence (P08173 1-479): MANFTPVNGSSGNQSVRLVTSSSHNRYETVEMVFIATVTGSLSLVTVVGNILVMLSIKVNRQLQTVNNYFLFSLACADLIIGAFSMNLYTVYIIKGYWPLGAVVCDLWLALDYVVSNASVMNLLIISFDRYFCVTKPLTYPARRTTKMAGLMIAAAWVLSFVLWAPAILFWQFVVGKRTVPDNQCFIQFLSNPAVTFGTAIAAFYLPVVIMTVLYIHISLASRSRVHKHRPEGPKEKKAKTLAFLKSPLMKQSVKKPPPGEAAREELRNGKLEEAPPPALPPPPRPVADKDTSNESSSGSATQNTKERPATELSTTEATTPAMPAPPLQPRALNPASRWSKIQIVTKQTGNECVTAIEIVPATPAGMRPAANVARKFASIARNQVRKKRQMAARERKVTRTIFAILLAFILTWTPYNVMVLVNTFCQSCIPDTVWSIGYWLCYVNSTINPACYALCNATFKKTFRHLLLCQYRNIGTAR
Assay: mAChR M4 cell-based functional assay (calcium mobilization, CHO-K1 hM4-Gqi5 cells)
Conditions: for Emax at 30 µM: CHO-K1, % ACh maximum at 30 μM, human M4; for EC50: positive allosteric modulator activity, increase in the EC20 acetylcholine response, CHO-K1 hM4-Gqi5 cells, read-out: Human M4 EC50
Procedure, shortened: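 CHO-K1 cells stably expressing human M4 with chimeric Gqi5, loaded with Fluo-4 AM; compounds given as 11-point 1:3 curves and calcium flux read on FDSS at 1 Hz. Acetylcholine EC20 added at 144 s, EC80 at 230 s; agonist, PAM (EC20 potentiation) and antagonist (EC80 inhibition) EC50/Emax from four-parameter fits.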

| Emax at 30 µM [%] | EC50 [µM] | Structure (SMILES) |
| --- | --- | --- |
| 64 | 2.12 | COc1cc(CNC(=O)c2cnc(N3CCc4ncccc4C3)c(C)c2)ccc1F [compound 152, 6-(7,8-dihydro-5H-1,6-naphthyridin-6-yl)-N-[(4-fluoro-3-methoxy-phenyl)methyl]-5-methyl-pyridine-3-carboxamide] |
| 68 | 3.17 | Cc1cc(C(=O)NCc2ccc3c(c2)COC3)cnc1N1CCc2ncccc2C1 [compound 153, N-(1,3-dihydroisobenzofuran-5-ylmethyl)-6-(7,8-dihydro-5H-1,6-naphthyridin-6-yl)-5-methyl-pyridine-3-carboxamide] |
| 47 | 6.56 | Cc1cc(C(=O)NCc2ccc3c(c2)CC(=O)N3)cnc1N1CCc2ncccc2C1 [compound 154, 6-(7,8-dihydro-5H-1,6-naphthyridin-6-yl)-5-methyl-N-[(2-oxoindolin-5-yl)methyl]pyridine-3-carboxamide] |
| 63 | 3.91 | Cc1cc(C(=O)NCc2cnc3c(c2)CCC3)cnc1N1CCc2ncccc2C1 [compound 155, N-(6,7-dihydro-5H-cyclopenta[b]pyridin-3-ylmethyl)-6-(7,8-dihydro-5H-1,6-naphthyridin-6-yl)-5-methyl-pyridine-3-carboxamide] |
| 84 | 1.15 | Cc1cc(C(=O)NCc2cccc3cccnc23)cnc1N1CCc2ncccc2C1 [compound 156, 6-(7,8-dihydro-5H-1,6-naphthyridin-6-yl)-5-methyl-N-(8-quinolylmethyl)pyridine-3-carboxamide] |
| 57 | 3.48 | Cc1cc(C(=O)NCc2ccc3nccnc3c2)cnc1N1CCc2ncccc2C1 [compound 157, 6-(7,8-dihydro-5H-1,6-naphthyridin-6-yl)-5-methyl-N-(quinoxalin-6-ylmethyl)pyridine-3-carboxamide] |
| 68 | 3.64 | Cc1cc(C(=O)NCc2ccc3c(c2)n(C)c(=O)n3C)cnc1N1CCc2ncccc2C1 [compound 158, 6-(7,8-dihydro-5H-1,6-naphthyridin-6-yl)-N-[(1,3-dimethyl-2-oxo-benzimidazol-5-yl)methyl]-5-methyl-pyridine-3-carboxamide] |

Continued, compound first:

| Structure (SMILES) | Emax at 30 µM [%] | EC50 [µM] |
| --- | --- | --- |
| Cc1c(C(=O)NCc2cccnc2)nnc(N2CCc3ncccc3C2)c1C [compound 136, 6-(7,8-dihydro-5H-1,6-naphthyridin-6-yl)-4,5-dimethyl-N-(3-pyridylmethyl)pyridazine-3-carboxamide] | 88 | 1.88 |
| Cc1c(C(=O)NCc2ccccn2)nnc(N2CCc3ncccc3C2)c1C [compound 137, 6-(7,8-dihydro-5H-1,6-naphthyridin-6-yl)-4,5-dimethyl-N-(2-pyridylmethyl)pyridazine-3-carboxamide] | 91 | 3.38 |
| Cc1c(C(=O)NCc2cncs2)nnc(N2CCc3ncccc3C2)c1C [compound 138, 6-(7,8-dihydro-5H-1,6-naphthyridin-6-yl)-4,5-dimethyl-N-(thiazol-5-ylmethyl)pyridazine-3-carboxamide] | 96 | 1.11 |
| Cc1cc(C(=O)NCc2cncc(Br)c2)cnc1N1CCc2ncccc2C1 [compound 139, N-[(5-bromo-3-pyridyl)methyl]-6-(7,8-dihydro-5H-1,6-naphthyridin-6-yl)-5-methyl-pyridine-3-carboxamide] | 70 | 1.36 |
| Cc1cc(C(=O)NCc2cnc3ccccc3c2)cnc1N1CCc2ncccc2C1 [compound 140, 6-(7,8-dihydro-5H-1,6-naphthyridin-6-yl)-5-methyl-N-(3-quinolylmethyl)pyridine-3-carboxamide] | 62 | 1.03 |
| COc1ccc(Br)cc1CNC(=O)c1cnc(N2CCc3ncccc3C2)c(C)c1 [compound 141, N-[(5-bromo-2-methoxy-phenyl)methyl]-6-(7,8-dihydro-5H-1,6-naphthyridin-6-yl)-5-methyl-pyridine-3-carboxamide] | 56 | 1.42 |
| COC(=O)c1ccc(CNC(=O)c2cnc(N3CCc4ncccc4C3)c(C)c2)cn1 [compound 142, methyl 5-[[[6-(7,8-dihydro-5H-1,6-naphthyridin-6-yl)-5-methyl-pyridine-3-carbonyl]amino]methyl]pyridine-2-carboxylate] | 50 | ≥ 10 |
| Cc1cc(C(=O)NCc2ccc(S(C)(=O)=O)cc2)cnc1N1CCc2ncccc2C1 [compound 143, 6-(7,8-dihydro-5H-1,6-naphthyridin-6-yl)-5-methyl-N-[(4-methylsulfonylphenyl)methyl] pyridine-3-carboxamide] | 53 | 5.83 |
| Cc1cc(C(=O)NCc2ccc(C(F)(F)F)cn2)cnc1N1CCc2ncccc2C1 [compound 144, 6-(7,8-dihydro-5H-1,6-naphthyridin-6-yl)-5-methyl-N-[[5-(trifluoromethyl)-2-pyridyl]methyl]pyridine-3-carboxamide] | 61 | 6.09 |
| Cc1cc(C(=O)NCc2ncc(C(F)(F)F)cn2)cnc1N1CCc2ncccc2C1 [compound 145, 6-(7,8-dihydro-5H-1,6-naphthyridin-6-yl)-5-methyl-N-[[5-(trifluoromethyl)pyrimidin-2-yl]methyl]pyridine-3-carboxamide] | 50 | ≥ 10 |
| Cc1cc(C(=O)NCc2ncc(Cl)cn2)cnc1N1CCc2ncccc2C1 [compound 146, N-[(5-chloropyrimidin-2-yl)methyl]-6-(7,8-dihydro-5H-1,6-naphthyridin-6-yl)-5-methyl-pyridine-3-carboxamide] | 56 | ≥ 10 |
| Cc1cc(C(=O)NCc2ncc(F)cn2)cnc1N1CCc2ncccc2C1 [compound 147, 6-(7,8-dihydro-5H-1,6-naphthyridin-6-yl)-N-[(5-fluoropyrimidin-2-yl)methyl]-5-methyl-pyridine-3-carboxamide] | 52 | ≥ 10 |
| Cc1cc(C(=O)NCc2ccc(-n3ccnc3)nc2)cnc1N1CCc2ncccc2C1 [compound 148, 6-(7,8-dihydro-5H-1,6-naphthyridin-6-yl)-N-[(6-imidazol-1-yl-3-pyridyl)methyl]-5-methyl-pyridine-3-carboxamide] | 67 | 3.54 |
| CNC(=O)c1ccc(CNC(=O)c2cnc(N3CCc4ncccc4C3)c(C)c2)cc1 [compound 149, 6-(7,8-dihydro-5H-1,6-naphthyridin-6-yl)-5-methyl-N-[[4-(methylcarbamoyl)phenyl]methyl] pyridine-3-carboxamide] | 56 | ≥ 10 |
| Cc1cc(C(=O)NCc2ccc3nn[nH]c3c2)cnc1N1CCc2ncccc2C1 [compound 150, N-(3H-benzotriazol-5-ylmethyl)-6-(7,8-dihydro-5H-1,6-naphthyridin-6-yl)-5-methyl-pyridine-3-carboxamide] | 61 | 4.68 |
| Cc1cc(C(=O)NCc2ccc3ncnn3c2)cnc1N1CCc2ncccc2C1 [compound 151, 6-(7,8-dihydro-5H-1,6-naphthyridin-6-yl)-5-methyl-N-([1,2,4]triazolo[1,5-a]pyridin-6-ylmethyl)pyridine-3-carboxamide] | 67 | 3.25 |
